# Results as given in PMC7746742, “The novel rexinoid MSU-42011 is effective for the treatment of preclinical Kras-driven lung cancer” (Scientific Reports, 2020).
# Read-outs that look alike come from different tables or passages of the source.
# Experiments:
# SREBP [1] = test: SREBP mRNA expression assay in HepG2 cells (RT-PCR); assay type: cell-based, human; conditions: for Effect on the induction of SREBP mRNA by LG100268: combined with LG100268 300 nM, GSK 2033 500 nM; for Effect on the induction of SREBP mRNA by LG100268 / SREBP mRNA expression compared to the vehicle control: HX 531 100 nM; for SREBP mRNA expression compared to the vehicle control: LG100268 300 nM, T0901317 500 nM, alone or combined; for SREBP activation Fold induction vs. Control / fold induction at 0.3 µM: HepG2 cells, 300 nM rexinoids, 8 h, SREBP mRNA by RT-PCR, mean ± SD of 3 experiments; for fold induction at 0.3 µM: Homo sapiens, read-out: SREBP activation Fold induction vs. Control
# Procedure: The goals of our structure–activity relationship (SAR) studies were to explore and discover new scaffolds that not only bind to RXR but also are able to independently modulate both iNOS and SREBP activity in accordance with a previously described screening paradigm. To characterize the effect of the novel rexinoids on SREBP elevation in vitro, HepG2 cells were treated with 300 nM rexinoids for 8 h and SREBP mRNA levels were measured by RT-PCR. SREBP expression ranged from no change to a 4.6-fold induction compared to the vehicle control when treated with the novel compounds. […] Analogs MSU- 41402, 41582, 41407, 41566, 41844, 41845, 42011, and 42166 induced an SREPB mRNA fold expression change of 1–1.5 normalized to a vehicle control, while bexarotene induced an mRNA fold expression change of > 2 (Table 1).
# (§1) HepG2 were plated in 6-well plates (1 × 10^6 cells/well) and, after allowing the cells to attach overnight, were treated with 300 nM rexinoids and/or varying concentrations of T0901317 (TOCRIS # 2373), GSK 2033 (TOCRIS # 5694), HX 531 (TOCRIS # 3912) for 8 h. Total RNA was isolated with TRIzol (Invitrogen, Carlsbad, CA) and 2 µg RNA was used to synthesize cDNA using the SuperScript III reverse transcriptase kit (Invitrogen, Carlsbad, CA). Primers (IDT) for SREBP (F: 5′-GCCGGTTGATAGGCAGCTT-3′; R: 5′-GGTGAGTGGCGGAACCATT-3′) and GAPDH (F: 5′-[…]-3′; R: 5′-[…]-3′), the SYBR Green Supermix (Bio-rad Laboratories, Hercules, CA) and the QuantStudio 7 Flex Real-Time PCR system (95 °C for 20 s followed by 40 cycles of 95 °C for 15 s and 60 °C for 1 min were used to detect mRNA expression. Relative SREBP/GAPDH gene expression was calculated by the delta-delta Ct method. To evaluate protein expression by western blotting, HepG2 cells were plated as above and treated with 300 nM of rexinoids for 24 h. Cells were harvested and lysed in RIPA buffer (1 M Tris–Cl, 5 M NaCl, pH 7.4, 0.5 M EDTA, 25 mM sodium deoxycholate, 1% triton-X, 0.1% SDS, 0.0125% aprotinin) with protease inhibitors (1% PMSF/0.5% apoprotein/0.1%leupeptin). Protein concentration was measured using a BCA assay (Sigma-Aldrich). Proteins (10 µg/well) were separated in 10% SDS-PAGE gels and transferred to nitrocellulose membranes. Membranes were incubated with SREBP (Active Motif; 1:1000) and GAPDH (Santa Cruz Biotechnology; 1:8000) primary antibodies followed by anti-rabbit secondary antibodies conjugated to horseradish peroxidase (Cell Signaling). Signal was detected using the ECL Western Blotting Substrate (GE Healthcare), and protein levels quantified using ImageJ.
# SREBP [2] = test: SREBP protein expression in HepG2 cells (western blot); assay type: cell-based, human; conditions: 300 nM rexinoids, 24 h
# Procedure: Although we have confirmed that the iNOS assay correlates with in vivo efficacy, few investigators have used the induction of SREBP in vitro as a biomarker to predict the ability of novel rexinoids to increase triglycerides in vivo. Elevated triglycerides are a side-effect found with many RXR agonists in preclinical models and by bexarotene in humans[13],[14]. […] HepG2 human liver cells were used, as the liver is the major organ that regulates lipid homeostasis.
# as §1
# iNOS = iNOS inhibition assay (LPS-induced NO production, Griess reaction); assay type: cell-based, murine; conditions: RAW264.7 cells, 0–1000 nM rexinoids, LPS 1 ng/ml 24 h, NO by Griess assay, mean ± SE of 3 experiments, read-out: iNOS suppression IC50
# Procedure: To evaluate the anti-inflammatory effects of the novel rexinoids, we utilized the iNOS suppression assay. Inhibition of iNOS in vitro directly correlates with efficacy in our preclinical model of Kras-driven lung cancer. RAW264.7 macrophage-like cells were treated with 0–1 μM rexinoids and stimulated with 1 ng/mL lipopolysaccharide for 24 h, and then NO was measured in the media.
# RAW264.7 cells were plated in 96-well plates (20,000 cells/well). After overnight attachment, cells were treated with twofold serial dilutions (0–1000 nM) of rexinoids. After a 20 min incubation at 37 °C, cells were stimulated with 1 ng/mL LPS for 24 h. NO production was measured in culture medium using the Griess reaction. IC50 values were calculated using GraphPad Prism 8.1.2 software for Windows using a log([nM drug concentration]) vs. response curve fit.
# [3] = Plasma triglycerides in MMTV-neu mice fed rexinoids; assay type: in vivo; conditions: MMTV-neu mice fed rexinoids for 10 days, n=5-6 mice/group
# Procedure: fold expression triglyceride
# Supplemental Fig 1. Correlation of SREPB mRNA expression and triglyceride levels. HepG2 human liver cells were treated with 300 nM of rexinoids for 8 hr,and lysates analyzed by RT-PCR. Triglycerides in plasma from MMTV-neu mice fed rexinoids for10 days were measured using a commercial kit(Abcam). *, p <0.01 vs control; **, p<0.05 vs bex and LG268; n=5-6 mice/group.
# A549 lung cancer cells = test: MTT proliferation assay; assay type: cell-based, human; conditions: 0–1 μM rexinoids, 72 hr
# Procedure: were treated with 0-1 μM rexinoids for 72 hr. Proliferation was measured using the MTT assay.
# MTT Assay. A549 cells were plated in 96-well plates (2,000 cells/well). After overnight attachment, cells were treated with 2 fold dilutions (0-1000 nM rexinoids) for 72 hr. 50 μL 3-(4,5-dimethylthiazol-2-yl)-2,5-diphenyltetrazolium bromide (MTT; Sigma M2128) was added to each well, and cells were incubated at 37 °C for 4 hr. Media was removed and cells were lysed with developing solution (0.04 M HCl in isopropanol). Plates were read at 550 nm.
# (also on this page, place not known: 110A549 Cell Proliferation (% DMSO Control) 37°C)
IC50 (iNOS; Mus musculus) [nM],SMILES,"fold induction at 0.3 µM (SREBP [1]; HepG2, 8 h)",other results
–,Cc1cc(C)c(S(=O)(=O)N(Cc2ccc(-c3cccc(S(C)(=O)=O)c3)cc2)Cc2ccc(C(F)(F)F)o2)c(C)c1 [GSK 2033],–,"SREBP mRNA expression lowered by (SREBP [1]; HepG2, 8 h, GSK 2033 500 nM alone): ~ 50%; Effect on the induction of SREBP mRNA by LG100268 (SREBP [1]; HepG2, 8 h): partially reversed the induction of SREBP by LG100268"
–,CN1c2ccc([N+](=O)[O-])cc2N=C(c2ccc(C(=O)O)cc2)c2cc3c(cc21)C(C)(C)CCC3(C)C [HX 531],–,"SREBP mRNA expression compared to the vehicle control (SREBP [1]; HepG2, 8 h): did not alter SREBP mRNA expression; Effect on the induction of SREBP mRNA by LG100268 (SREBP [1]; HepG2, 8 h): reversed the induction of SREBP by LG100268"
–,CC(/C=C/[C@@H]1C[C@]1(C)c1ccc2c(c1)C(C)(C)CCC2(C)C)=C\C(=O)O [IRX194204],–,SREBP protein levels compared to DMSO control (SREBP [2]): increased SREBP protein levels
–,Cc1cc2c(cc1C1(c3ccc(C(=O)O)cn3)CC1)C(C)(C)CCC2(C)C [LG100268],–,"SREBP mRNA expression compared to the vehicle control (SREBP [1]; HepG2, 8 h): 2.5 fold; SREBP activation Fold induction vs. Control (SREBP [1]): 3.06 ± 0.7 fold; IC50 (iNOS): 83 ± 14 nM; SREBP protein levels compared to DMSO control (SREBP [2]): increased SREBP protein levels; Plasma triglyceride levels in mice [3]: 3.42 ± 0.4 nmol/µL; Growth / proliferation of A549 lung cancer cells (A549 lung cancer cells): do not inhibit proliferation"
–,C/C(=C/C=C/C(C)=C/C(=O)O)c1cc(C(C)(C)C)cc(C(C)(C)C)c1OCC(F)F [LG101506],–,SREBP activation Fold induction vs. Control (SREBP [1]): 1.06 ± 0.3 fold; SREBP protein levels compared to DMSO control (SREBP [2]): did not; Plasma triglyceride levels in mice [3]: 1.21 ± 0.1 nmol/µL
343 ± 62,CCN(c1ccc(C(=O)O)cc1)c1cc(C(C)(C)C)cc(C(C)(C)C)c1 [MSU-41402],1.37 ± 0.3,–
331 ± 45,C=C(c1ccc(C(=O)O)cc1)c1cc(C(C)(C)C)ccc1OCC [MSU-41403],2.68 ± 0.2,–
340 ± 25,C=C(c1ccc(C(=O)O)cc1)c1cc2c(cc1C)CCCC2(C)C [MSU-41404],3.07 ± 0.5,–
267 ± 32,C=C(c1ccc(C(=O)O)cc1)c1ccc(OCC(C)C)c(C(C)C)c1 [MSU-41405],1.87 ± 0.3,–
252 ± 55,C=C(c1ccc(C(=O)O)cc1)c1cc(C(C)C)c(OCC(C)C)cc1C [MSU-41406],1.67 ± 0.2,–
334 ± 17,C=C(c1ccc(C(=O)O)cc1)c1cc(C(C)C)c(OC(C)C)cc1C [MSU-41407],1.08 ± 0.1,–
300 ± 79,C=C(c1ccc(C(=O)O)cc1)c1cc(C(C)C)c(OCC)cc1C [MSU-41408],2.55 ± 0.7,–
248 ± 60,CCN(c1cc(C(C)(C)C)cc(C(C)(C)C)c1)c1ccc(C(=O)O)cn1 [MSU-41564],2.62 ± 0.7,–
366 ± 49,CCOc1c(N(CC)c2ccc(C(=O)O)cc2)cc(C(C)(C)C)cc1C(C)(C)C [MSU-41565],1.59 ± 0.2,–
239 ± 53,C=C(c1ccc(C(=O)O)cc1)c1cc(C(C)(C)C)cc(C(C)(C)C)c1 [MSU-41566],1.12 ± 0.5,–
271 ± 92,CC(C)(C)c1cc(-n2c(C(F)(F)F)nc3cc(C(=O)O)ccc32)cc(C(C)(C)C)c1 [MSU-41567],1.58 ± 0.2,–
295 ± 54,CCN(c1cc(C(C)(C)C)cc(C(C)(C)C)c1)c1ncc(C(=O)O)cn1 [MSU-41582],1.38 ± 0.4,–
290 ± 61,CCN(c1ccc(C(=O)O)cn1)c1cc(C(C)(C)C)ccc1C [MSU-41583],1.59 ± 0.5,–
274 ± 33,CC(C)(C)c1cc(N(CC2CC2)c2ccc(C(=O)O)cn2)cc(C(C)(C)C)c1 [MSU-41843],2.48 ± 1.8,–
389 ± 53,CCN(c1cc(C(F)(F)F)cc(C(F)(F)F)c1)c1ccc(C(=O)O)cn1 [MSU-41844],0.96 ± 0.5,–
338 ± 31,CCN(c1ccc(C(=O)O)cc1)c1cc(C(C)C)c(OCC(C)C)cc1C [MSU-41845],1.45 ± 0.2,–
347 ± 31,CCN(c1ccc(C(=O)O)cc1)c1cc(C(C)(C)C)c(OC)c(C(C)(C)C)c1 [MSU-41846],1.63 ± 0.3,–
–,O=S(=O)(c1ccccc1)N(CC(F)(F)F)c1ccc(C(O)(C(F)(F)F)C(F)(F)F)cc1 [T0901317],–,"SREBP mRNA expression compared to the vehicle control (SREBP [1]; HepG2, 8 h): 2.5 fold"
